Values of other authors as cited in patent US10449194B2 (Tocagen Inc., priority 2008, dated 2019).
Where two headings read alike, the source gives them in different places.

[1] = patients with normal renal function

## Nc1nc(=O)[nH]cc1F [Example 5-FC, 5-fluorocytosine]
2 gram oral dose, normal subjects
  Time to peak serum concentrations: ≤ 2 h
Vermes et al. 2000
  Serum level above which toxicity generally occurs: > 100 µg/mL
Nephrectomized or anuric patients
  Average half-life: 85 h
Oral vs intravenous AUC of serum concentrations
  Bioavailability (absorption) after oral administration: 76-89%
[1]
  Half-life in the serum: 2 to 5 h
  Time to peak concentrations in serum and other body fluids: 1 to 2 h
Patients with severe renal insufficiency
  Half-life in the serum: up to 85 h
